Measured values: patent publication US20060211071A1, “Device for aggregating, imaging and analyzing thrombi and a method of use” (Millennium Pharmaceuticals, Inc., priority 2004, published 2006)
Where a SMILES comes first, the peptide text is derived from it. Bridges are numbered along the chain shown (N, C = ends). [ ]: non-standard residue; d: D form. hArg = N=C(N)NCCCC[C@H](N)C(=O)O; Mpa = O=C(O)CCS

Columns and labels:
preformed thrombi = assay: Stability / reversal of preformed thrombi, blood perfused over collagen surface under arterial shear rates; format: cell-based, human
Experimental: Images are recorded at a frequency of 1 Hz.
Such assays can be used to detect antithrombotic activity of drugs that will target known effectors of thrombus stability reported in animal models of thrombosis (CD40L, Gas6, SLAM, SAP, Ephrin).

[1] = test system: thrombi on type III collagen-coated capillaries; assay: End-point perfusion chamber assay: effect of anticoagulants on antithrombotic activity of a P2Y12 antagonist; format: cell-based, human; settings: 4 minutes at 1000/sec
Experimental: Several anticoagulants have been studied for their effects on the antithrombotic activity of a proprietary direct P2Y12 antagonist in the perfusion chamber assay. Whole blood was perfused over type III collagen-coated capillaries for 4 minutes at 1000/sec. At the end of the experiment, thrombotic deposits were rinsed, fixed and stained with toluidine blue for measurement of thrombus size. […] FIG. 10B represents the mean grey level (MGL) of the thrombi present in the area of observation located at 8 mm from the proximal part of the capillary. Corresponding thrombus volume was determined using the graph presented on FIG. 10C. Nonanticoagulated or Factor Xa anticoagulated human blood was perfused through type III collagen-coated capillary chambers (Vitrocom, glass rectangular capillaries 0.2 by 2 mm section) at […] for 4 minutes. After staining of the thrombotic deposits with toluidine blue for 45 seconds, an En Face picture located 8 mm downstream of the proximal part of the capillary was taken. Measurement of the gray level of each thrombus or platelets located in a window 400 μm long×250 μm wide was performed, and results are expressed as mean ±SEM using the Simple PCI software (Compix Inc Imaging System). Measurement of the mean thrombus volume (μm^3/μm^2) was performed at the same location on cross sections of the thrombotic deposits after epon embedding as described by Andre et al. (2003) Circulation 108, 2697-2703. Mean thrombus volume was expressed by use of Simple PCI software and plotted against the corresponding mean grey level. By using data from human in vitro (by titrating with the GPIIb/IIIa antagonist eptifibatide) experiments, a thrombotic profile (FIG. 10C) that was then used for a rapid measurement of the thrombus volume in subsequent experiments Was established

platelets = assay: Whole blood treated with GPIIb/IIIa antagonist perfused over collagen surface: monolayer of adhering platelets; format: cell-based; settings: therapeutic dose 2-3 uM
From the text: P-selectin is responsible for the recruitment of leukocytes on activated/inflamed vessel wall and at sites of platelet deposition. It is known that leukocyte recruitment under these conditions will contribute to atherosclerotic plaque progression. Therefore monitoring the number of leukocyte rolling on adhering platelets could help define people at risk to develop future atherothrombotic events (number of leukocyte recruited as a predictor of future clinical events). Whole blood treated with a GPIIb/IIIa antagonist (e.g. Integrilin at the therapeutic dose 2-3 uM) and perfused over a collagen surface generate a monolayer of adhering platelets. […] Two to three minutes after the start of the perfusion at arterial shear rates of about ˜600/sec, leukocytes stained with rhodamine 6G are being recruited and roll over the adhering platelets. Antithrombotic agents (or agents targeting the P-selectin/PSGL-1 pathway) that will reduce the amount of leukocyte rolling on adhering platelets will therefore potentially reduce the risks of atherothrombotic events.

[2] = test system: thrombotic process triggered by type III collagen; settings: 1000/sec
Experimental: The methodology and device described herein allows the monitoring in real time of the deposition of fluorescently labeled platelets into a transparent perfusion chamber (FIG. 11). The thrombosis profiler consists of a custom built epifluorescence microscope to monitor thrombus formation and a syringe pump to establish the desired flow and wall shear rate in the capillary perfusion chamber. A thermostatic sample compartment maintains the blood sample at a temperature of 37° C. Platelets are labeled by adding an aliquot of Rhodamine 6G (final concentration 1.25 μg/ml) to whole blood. […] Excitation and emission light are filtered with a set of fluorescence filters (31002, Chroma Technologies, Rockingham, Vt.). […] Images are recorded at a frequency of 1 Hz. […]
A software/algorithm has been developed in order to obtain a more representative read out of the thrombus formation over time. […] Since the use of antithrombotic drugs can increase platelet adhesion, thrombus size was represented as the measurement of the fluorescence intensity divided by total area (FIG. 12). […] Once the threshold is determined, pixels with values lower than the threshold are classified as background and pixels with values greater than the threshold are marked as foreground. […]

thrombus size = assay: Sequential study of thrombotic profile of 20 healthy volunteers on clopidogrel, aspirin and their combination; format: in vivo, human; settings: clopidogrel 75 mg/day, aspirin 325 mg/day
thrombus destabilization = settings: two 300 mg loading doses of plavix and daily aspirin
[3] = test system: thrombotic process on collagen+tissue factor coated matrix; assay: Non-anticoagulated blood perfused over fibrillar collagen plus tissue factor matrix; format: cell-based; settings: therapeutic dose; arterial shear rates
From the text: In this method, the thrombotic process can be evaluated with non-anticoagulated samples of blood. Non-anticoagulated samples of blood perfused over a thrombogenic matrix made of fibrillar collagen plus tissue factor generate thrombotic process under both venous and arterial shear rates that is sensitive to the action of different anticoagulants. In FIG. 22, the thrombotic profile, is inhibited by the therapeutic dose of enoxaparin and a factor Xa inhibitor indicating this system can be used to detect the activity of anticoagulants under arterial shear rates. Similarly, this method can be used to detect both platelet and fibrin deposition under venous shear rate conditions using for example fluorescently labeled antibodies directed against fibrin.

In the case of `CSc1nc(N)c2ncn([C@@H]3O[C@H](COP(=O)(O)O)[C@@H](O)[C@H]3O)c2n1` [2MeSAMP], the “mechanism of effect on thrombosis (thrombus stability)” value (“mechanism of effect on thrombosis” below) (preformed thrombi) is reported as “affect thrombosis via a mechanism targeting the thrombus stability”, the “destabilization / reversal of preformed thrombi” value (preformed thrombi; 100 uM) is reported as “induces the destabilization of preformed thrombi” and the “extent of the reversal phenomenon in presence of aspirin” value (preformed thrombi; 2MeSAMP at 100 uM, aspirin present) is reported as “increased in presence of aspirin”.
With `O=C(O)CC(O)(CC(=O)O)C(=O)O` [Citrate] the “effect of the anticoagulant on the antithrombotic activity of a P2Y12 antagonist” value (“effect of the anticoagulant” for short) [1] was “artificially increased the antithrombotic effects of P2Y12 antagonist”.
`CCCCCNC(=O)c1coc([C@H]2[C@@H](Cc3ccccc3CCC(=O)O)[C@@H]3CC[C@H]2O3)n1` [Ifetroban] was tested, and the “mechanism of effect on thrombosis” value (preformed thrombi) was “affect thrombosis via a mechanism targeting the thrombus stability” and the “stability of preformed thrombi” value (preformed thrombi; 300 nM and 1 uM) was “significantly altered their stability”.
With `N=C(N)NCCCC[C@@H]1NC(=O)CCSSC[C@@H](C(N)=O)NC(=O)[C@@H]2CCCN2C(=O)[C@H](Cc2c[nH]c3ccccc23)NC(=O)[C@H](CC(=O)O)NC(=O)CNC1=O` [Integrilin] ([Mpa][hArg]GDWPC-NH2; disulfide 1-7) the platelet activation (platelets) was “platelet activation is not affected”, the thrombus formation (platelets) was “thrombus formation is abrogated” and the “concentration reaching maximum level of inhibition (therapeutic dose)” value ([2]; Factor Xa-anticoagulated blood) was 2 µM. For the same compound, the “inhibition of the thrombotic process” value ([2]; increasing concentrations spiked into Factor Xa-anticoagulated blood) was “dose-dependently inhibited the thrombotic process”.
In the case of `CNc1ncnc2c1ncn2[C@H]1C[C@H](OP(=O)(O)O)[C@@H](COP(=O)(O)O)O1` [MRS2179], the “destabilization / reversal of preformed thrombi” value (preformed thrombi; 100 uM) is reported as “did not induced thrombus reversal” and the “slope of thrombus growth” value (preformed thrombi; 100 uM, added to preformed thrombi) is reported as “reduced the slope of thrombus growth”.
In the case of `NC(N)=NCCC[C@H](NC(=O)[C@@H]1CCCN1C(=O)[C@H](N)Cc1ccccc1)C(=O)CCl` [PPACK], the “effect of the anticoagulant” value [1] is reported as “artificially increased the antithrombotic effects of P2Y12 antagonist”.
In the case of `CC(=O)Oc1ccccc1C(=O)O` [aspirin], the “mechanism of effect on thrombosis” value (preformed thrombi) is reported as “affect thrombosis via a mechanism targeting the thrombus stability” and the “healthy individuals that did not respond to monotherapy” value (thrombus size) is reported as 5 out of 20.
`COC(=O)[C@H](c1ccccc1Cl)N1CCc2sccc2C1` [clopidogrel] was tested, and the “mechanism of effect on thrombosis” value (preformed thrombi) was “affect thrombosis via a mechanism targeting the thrombus stability”, the “healthy individuals that did not respond to monotherapy” value (thrombus size) was 4 out of 20 and the “antithrombotic protection in type II diabetic patient” value (thrombus destabilization) was “lack of protection”.
In the case of enoxaparin, the thrombotic profile [3] is reported as “inhibited”.
hirudin was tested, and the “effect of the anticoagulant” value [1] was “least impact on the antithrombotic activity of P2Y12 antagonist”.
